# Laboratory results as given in patent US20250186436A1 (4E Therapeutics, Inc., priority 2021, published 2025).
# Where “and” joins values, the source holds several entries; their conditions need not be identical. Equal values may be shown once.
# What was measured:
# [1] = PK study in male Sprague Dawley rats, IV 1 mg/kg and PO 10 mg/kg (Example 4); assay type: in vivo; conditions: for clearance: CLp; for Vd: Vss; for concentration at 24 h: plasma; for AUC(0-t): AUClast
# [2] = PK study in male Sprague-Dawley rats dosed once per day for five days, PO 10 mg/kg, 0.5% HPMC (Example 7); assay type: in vivo; conditions: 0.5% HPMC suspension; for AUC(0-inf): read-out: AUCinf
# Experimental: Example 7. PK study of 4ET-03-053 in male Sprague-Dawley rats dosed once per day for five days (P0; 10 mg/kg; 0.5%0HPMC aqueous suspension)
# Table 21 provides plasma and brain concentrations at 24 hr after the last dose of five daily P0 doses of 4ET-03-053.
# [3] = SD rats, single PO 10 mg/kg, 10% DMA/PG, individual animals, 10 mg/kg
# [4] = SD rats, single PO 10 mg/kg, 10% DMA/PG, mean (n = 3)
# [5] = male SD rats, 1 mg/kg IV, individual animals, 1 mg/kg
# [6] = male SD rats, 1 mg/kg IV, mean (n = 3)
# [7] = male, Sprague Dawley, rat, in vivo, iv, 1 mg/kg
# [8] = male, Sprague-Dawley, rat, in vivo, iv, 1 mg/kg
# [9] = male, Sprague-Dawley, rat, in vivo, po, 10 mg/kg
# [10] = Sprague-Dawley rats, day five of daily PO 10 mg/kg, individual animals, 10 mg/kg
# [11] = Sprague-Dawley rats, day five of daily PO 10 mg/kg, mean (n = 3)
# [12] = male Sprague-Dawley rats, single PO 10 mg/kg dose, individual animals, 10 mg/kg
# [13] = male Sprague-Dawley rats, single PO 10 mg/kg dose, mean (n = 3)
# [14] = male, Sprague-Dawley, rat, in vivo, po, 10 mg/kg, Sprague-Dawley rats, day five of daily PO 10 mg/kg, individual animals
# [15] = male, Sprague-Dawley, rat, in vivo, po, 10 mg/kg, Sprague-Dawley rats, day five of daily PO 10 mg/kg, mean (n = 3)
structure (smiles),measurement,setting,value
"Cc1cc(Nc2cc(N)ncn2)c(=O)n2c1C(=O)NC21CCC2(CC2)CC1 [4ET-03-053, 6″-((6-Aminopyrimidin-4-yl)amino)-8″-methyl-2″H-dispiro[cyclopropane-1,1′-cyclohexane-4′,3″-imidazo[1,5-a]pyridine]-1″,5″-dione]",Tlast,"[1]; SD rats, single PO 10 mg/kg, 10% DMA/PG, individual animals",24.0 h
same,AUCinf/D,[1]; [3],23000 kg·h/kL and 24504 kg·h/kL and 18751 kg·h/kL
same,Clast,[1]; [3],2710 ng/mL and 2950 ng/mL
same,Cmax/D,[1]; [3],1440 kg/kL and 1960 kg/kL and 1840 kg/kL
same,F,[1]; [3],44.7% and 47.6% and 36.4%
same,AUCinf/D,[1]; [4],22085 kg·h/kL
same,Cmax/D,[1]; [4],1747 kg/kL
same,F,[1]; [4],42.9%
same,Tlast,[1]; [4],24.0 h
same,Tlast,"[1]; male SD rats, 1 mg/kg IV, individual animals",24.0 h
same,AUCinf,[1]; [5],55.049 µg·h/mL and 46.264 µg·h/mL
same,AUCinf/D,[1]; [5],53103 kg·h/kL and 55049 kg·h/kL and 46264 kg·h/kL
same,Clast,[1]; [5],302 ng/mL and 336 ng/mL
same,Co,[1]; [5],8106 ng/mL and 7353 ng/mL and 7726 ng/mL
same,AUCinf/D,[1]; [6],51472 kg·h/kL
same,Co,[1]; [6],7728 ng/mL
same,Tlast,[1]; [6],24.0 h
same,C0,[1]; [7],7730 ng/mL
same,CLp,[1]; [7],0.326 mL/min/kg
same,clearance,[1]; [7],0.33 mL/min/kg
same,Vd,[1]; [7],0.15 L/kg
same,half-life,"[1]; male, Sprague Dawley, rat, in vivo, iv, 1 mg/kg, t1/2",6.36 h
same,AUC(0-inf),"[1]; male, Sprague Dawley, rat, in vivo, iv, 1 mg/kg, total systemic exposure (AUCinf)",51.5 µg·h/mL
same,bioavailability,"[1]; male, Sprague Dawley, rat, in vivo, po, 10 mg/kg",42.9%
same,Cmax,"[1]; male, Sprague Dawley, rat, in vivo, po, 10 mg/kg, peak plasma concentration (Cmax)",17500 ng/mL
same,half-life,"[1]; male, Sprague Dawley, rat, in vivo, po, 10 mg/kg, terminal half-life (t1/2)",9.1 h
same,AUC(0-inf),"[1]; male, Sprague Dawley, rat, in vivo, po, 10 mg/kg, total systemic exposure (AUCinf)",221 µg·h/mL
same,concentration at 24 h,"[1]; male, Sprague Dawley, rat, iv, 1 mg/kg, male SD rats, 1 mg/kg IV, at 24 h, mean (n = 3), read-out: Clast",350 ng/mL
same,concentration at 24 h,"[1]; male, Sprague Dawley, rat, po, 10 mg/kg, rats, 10 mg/kg PO, 10% DMA/PG, at 24 h, read-out: last measurable concentration",2620 ng/mL
same,AUC(0-t),[1]; [8],51.1 µg·h/mL
same,clearance,[1]; [8],0.314 mL/min/kg
same,MRT inf,"[1]; male, Sprague-Dawley, rat, in vivo, iv, 1 mg/kg, MRTinf",7.24 h
same,Vd,[1]; [8],0.136 L/kg
same,AUC(0-inf),"[1]; male, Sprague-Dawley, rat, in vivo, iv, 1 mg/kg, male SD rats, 1 mg/kg IV, individual animals, read-out: AUCinf",53.1 µg·h/mL
same,AUC(0-inf),"[1]; male, Sprague-Dawley, rat, in vivo, iv, 1 mg/kg, male SD rats, 1 mg/kg IV, mean (n = 3), read-out: AUCinf",51.5 µg·h/mL
same,half-life,"[1]; male, Sprague-Dawley, rat, in vivo, iv, 1 mg/kg, t1/2",6.63 h
same,Tmax,[1]; [9],0.5 h
same,AUC(0-t),[1]; [9],194 µg·h/mL
same,Cmax,"[1]; male, Sprague-Dawley, rat, in vivo, po, 10 mg/kg, Cmax",14400 ng/mL
same,half-life,"[1]; male, Sprague-Dawley, rat, in vivo, po, 10 mg/kg, t1/2",9.07 h
same,concentration at 24 h,"[1]; male, Sprague-Dawley, rat, iv, 1 mg/kg, male SD rats, 1 mg/kg IV, individual animals, read-out: Clast",411 ng/mL
same,concentration at 24 h,"[1]; male, Sprague-Dawley, rat, po, 10 mg/kg, SD rats, single PO 10 mg/kg, 10% DMA/PG, individual animals, read-out: Clast",2210 ng/mL
same,concentration at 24 h,"[1]; male, Sprague-Dawley, rat, po, 10 mg/kg, SD rats, single PO 10 mg/kg, 10% DMA/PG, mean (n = 3), read-out: Clast",2620 ng/mL
same,clinical observation after dosing,"[1]; rats, 1 mg/kg IV",lying on side and immobile with heavy breathing for about 10 min
same,clinical observation after dosing,"[1]; rats, 1 mg/kg IV, 1 mg/kg",The second animal died right after a slow IV injection
same,time to peak plasma concentration,"[1]; rats, 10 mg/kg PO, 10% DMA/PG",≤ 30 m
same,AUCinf,[2]; [10],318.204 µg·h/mL and 347.92 µg·h/mL
same,AUCinf/D,[2]; [10],25862 kg·h/kL and 31820 kg·h/kL and 34792 kg·h/kL
same,AUClast,[2]; [10],291.659 µg·h/mL and 320.41 µg·h/mL
same,Clast,[2]; [10],2390 ng/mL and 2740 ng/mL
same,Cmax,[2]; [10],18800 ng/mL
same,Cmax/D,[2]; [10],2460 kg/kL and 1880 kg/kL and 2510 kg/kL
same,F,[2]; [10],50.2% and 61.8% and 67.6%
same,MRTinf,[2]; [10],9.17 h and 9.18 h
same,t1/2,[2]; [10],7.19 h and 6.73 h
same,AUCinf/D,[2]; [11],30825 kg·h/kL
same,Cmax/D,[2]; [11],2283 kg/kL
same,F,[2]; [11],59.9%
same,time to peak plasma concentration,"[2]; Sprague-Dawley rats, following five daily PO doses of 10 mg/kg",≤ 2 h
same,AUCinf,[2]; [12],308.776 µg·h/mL and 251.304 µg·h/mL
same,AUCinf/D,[2]; [12],25525 kg·h/kL and 30878 kg·h/kL and 25130 kg·h/kL
same,AUClast,[2]; [12],296.855 µg·h/mL and 240.643 µg·h/mL
same,Clast,[2]; [12],1120 ng/mL and 1560 ng/mL
same,Cmax,[2]; [12],19900 ng/mL and 21800 ng/mL
same,Cmax/D,[2]; [12],2510 kg/kL and 1990 kg/kL and 2180 kg/kL
same,F,[2]; [12],49.6% and 60.0% and 48.8%
same,MRTinf,[2]; [12],7.59 h and 7.51 h
same,AUCinf/D,[2]; [13],27178 kg·h/kL
same,Cmax/D,[2]; [13],2227 kg/kL
same,F,[2]; [13],52.8%
same,AUC(0-t),[2]; [14],234 µg·h/mL
same,MRT inf,[2]; [14],9.79 h
same,Tmax,[2]; [14],2 h
same,AUC(0-inf),[2]; [14],259 µg·h/mL
same,concentration at 24 h,"[2]; male, Sprague-Dawley, rat, in vivo, po, 10 mg/kg, Sprague-Dawley rats, day five of daily PO 10 mg/kg, individual animals, read-out: Clast",2880 ng/mL
same,Cmax,"[2]; male, Sprague-Dawley, rat, in vivo, po, 10 mg/kg, Sprague-Dawley rats, day five of daily PO 10 mg/kg, individual animals, read-out: Cmax",24600 ng/mL
same,half-life,"[2]; male, Sprague-Dawley, rat, in vivo, po, 10 mg/kg, Sprague-Dawley rats, day five of daily PO 10 mg/kg, individual animals, read-out: t1/2 (converted)",6.54 h
same,AUC(0-t),[2]; [15],282 µg·h/mL
same,MRT inf,[2]; [15],9.38 h
same,Tmax,[2]; [15],1.67 h
same,AUC(0-inf),[2]; [15],308 µg·h/mL
